Measurements as given in US9896441B2 (Lycera Corporation, priority 2014, dated 2018).
pEC50: −log10 of the molar value.

Key:
RORγ-LBD = target: T1, RORγ-LBD (Homo sapiens, UniProt P51449); assay: RORγ-Ligand Binding Domain (LBD) TR-FRET Assay; assay type: biochemical; details: RORγ-LBD TR-FRET
T1 construct: made in house; host or cells: SF9 cells (baculovirus); used as diluted lysate
T1 sequence (P51449 269-508 limits assumed): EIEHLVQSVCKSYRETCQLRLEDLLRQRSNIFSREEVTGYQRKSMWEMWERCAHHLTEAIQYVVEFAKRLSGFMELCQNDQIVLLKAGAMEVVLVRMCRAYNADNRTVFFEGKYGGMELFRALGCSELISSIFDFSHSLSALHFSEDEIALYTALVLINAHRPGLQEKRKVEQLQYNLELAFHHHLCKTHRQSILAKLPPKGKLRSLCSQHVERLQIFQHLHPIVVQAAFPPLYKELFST
Summary of the method: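 Compounds, diluted in DMSO and then in assay buffer (1% DMSO final), were combined with His-tagged RORγ-LBD lysate at roughly 3 nM final and a 200 nM biotinylated SRC1 LXXLL peptide. Ursolic acid was included at 2 μM final. Coactivator recruitment was detected by TR-FRET.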

Gal4-RORγ-LBD = target: T2, Gal4-RORγ-LBD (Homo sapiens, UniProt P51449); assay: Gal4-RORγ Luciferase Reporter Assay in HEK-293T Cells; assay type: cell-based; details: HEK-293 cells, luciferase reporter, with ursolic acid
T2 construct: expressed in transfected cells
T2 sequence (P51449 269-508 limits assumed): T1 sequence (P51449 269-508 limits assumed)
Summary of the method: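 Max Response was taken as the upper plateau of a 4-parameter logistic fit of luciferase signal, normalized to 100 for wells without ursolic acid or compound. Transiently Gal4-RORγ-LBD/Gal4-luc transfected HEK-293 cells carrying […] ursolic acid were incubated with test compounds (0.2% DMSO) overnight at 37 °C and read with One-Glo.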

pEC50 (RORγ-LBD)	pEC50 (Gal4-RORγ-LBD)	Structure (SMILES)
> 6.30	5.30 to 6.30	CCOc1nn(CC)cc1S(=O)(=O)N1C[C@H](CCC(=O)OC)Oc2ccc(/C=C/c3c(F)cccc3C(F)(F)F)cc21 [Example 87, Methyl (S,E)-3-(4-((3-ethoxy-1-ethyl-1H-pyrazol-4-yl)sulfonyl)-6-(2-fluoro-6-(trifluoromethyl)styryl)-3,4-dihydro-2H-benzo[b][1,4]oxazin-2-yl)propanoate]
> 6.30	5.30 to 6.30	CCOc1nn(CC)cc1S(=O)(=O)N1C[C@H](CCC(=O)O)Oc2ccc(/C=C/c3c(F)cccc3C(F)(F)F)cc21 [Example 88, (S,E)-3-(4-((3-Ethoxy-1-ethyl-1H-pyrazol-4-yl)sulfonyl)-6-(2-fluoro-6-(trifluoromethyl)styryl)-3,4-dihydro-2H-benzo[b][1,4]oxazin-2-yl)propanoic acid]
> 6.30	5.30 to 6.30	O=C(O)CC[C@H]1CN(S(=O)(=O)c2cccc(OC(F)F)c2)c2cc(/C=C/c3c(F)cccc3Cl)ccc2O1 [Example 89A, (S,E)-3-(6-(2-chloro-6-fluorostyryl)-4-((3-(difluoromethoxy)phenyl)sulfonyl)-3,4-dihydro-2H-benzo[b][1,4]oxazin-2-yl)propanoic acid]
5.30 to 6.30	< 5.00	CCOc1nn(CC)cc1S(=O)(=O)N1C[C@H](CCC(=O)O)Oc2ccc(/C=C/c3cccc(Cl)n3)cc21 [Example 89AA, (S,E)-3-(6-(2-(6-chloropyridin-2-yl)vinyl)-4-((3-ethoxy-1-ethyl-1H-pyrazol-4-yl)sulfonyl)-3,4-dihydro-2H-benzo[b][1,4]oxazin-2-yl)propanoic acid]
5.30 to 6.30	< 5.00	CCOc1nn(CC)cc1S(=O)(=O)N1C[C@H](CCC(=O)OC)Oc2ccc(/C=C/c3cccc(Cl)n3)cc21 [Example 89AB, (S,E)-methyl 3-(6-(2-(6-chloropyridin-2-yl)vinyl)-4-((3ethoxy-1-ethyl-1H-pyrazol-4-yl)sulfonyl)-3,4-dihydro-2H-benzo[b][1,4]oxazin-2-yl)propanoate]
> 6.30	5.30 to 6.30	Cc1cccc(C)c1/C=C/c1ccc2c(c1)N(S(=O)(=O)c1cccc(OC(F)F)c1)C[C@H](CCC(=O)O)O2 [Example 89AC, (S,E)-3-(4-((3-(difluoromethoxy)phenyl)sulfonyl)-6-(2,6-dimethylstyryl)-3,4-dihydro-2H-benzo[b][1,4]-oxazin-2-yl)propanoic acid]
> 6.30	5.30 to 6.30	CCOc1nn(CC)cc1S(=O)(=O)N1C[C@H](CCC(=O)O)Oc2ccc(/C=C/c3c(F)cccc3F)cc21 [Example 89AE, (S,E)-3-(6-(2,6-difluorostyryl)-4-((3-ethoxy-1-ethyl-1H-pyrazol-4-yl)sulfonyl)-3,4-dihydro-2H-benzo[b][1,4]-oxazin-2-yl)propanoic acid]
> 6.30	< 5.00	CCOc1nn(CC)cc1S(=O)(=O)N1C[C@H](CCC(=O)OC)Oc2ccc(/C=C/c3c(F)cccc3F)cc21 [Example 89AF, (S,E)-methyl 3-(6-(2,6-difluorostyryl)-4-((3-ethoxy-1-ethyl-1H-pyrazol-4-yl)sulfonyl)-3,4-dihydro-2H-benzo[b][1,4]oxazin-2-yl)propanoate]
> 6.30	> 6.30	CCOc1nn(CC)cc1S(=O)(=O)N1C[C@H](CCC(=O)O)Oc2ccc(/C=C/c3c(C)cccc3F)cc21 [Example 89AG, (S,E)-3-(4-((3-ethoxy-1-ethyl-1H-pyrazol-4-yl)sulfonyl)-6-(2-fluoro-6-methylstyryl)-3,4-dihydro-2H-benzo[b][1,4]-oxazin-2-yl)propanoic acid]
> 6.30	> 6.30	CCOc1nn(CC)cc1S(=O)(=O)N1C[C@H](CCC(=O)OC)Oc2ccc(/C=C/c3c(C)cccc3F)cc21 [Example 89AH, (S,E)-methyl 3-(4-((3-ethoxy-1-ethyl-1H-pyrazol-4-yl)sulfonyl)-6-(2-fluoro-6-methylstyryl)-3,4-dihydro-2H-benzo[b][1,4]-oxazin-2-yl)propanoate]
> 6.30	5.30 to 6.30	O=C(O)CC[C@H]1CN(S(=O)(=O)c2cccc(OC(F)F)c2)c2cc(/C=C/c3c(F)cccc3C(F)(F)F)ccc2O1 [Example 89AI, (S,E)-3-(4-((3-(difluoromethoxy)phenyl)sulfonyl)-6-(2-fluoro-6-(trifluoromethyl)-styryl)-3,4-dihydro-2H-benzo[b][1,4]oxazin-2-yl)propanoic acid]
> 6.30	5.30 to 6.30	COC(=O)CC[C@H]1CN(S(=O)(=O)c2cccc(OC(F)F)c2)c2cc(/C=C/c3c(F)cccc3C(F)(F)F)ccc2O1 [Example 89AJ, (S,E)-methyl 3-(4-((3-(difluoromethoxy)phenyl)sulfonyl)-6-(2-fluoro-6-(trifluoromethyl)-styryl)-3,4-dihydro-2H-benzo[b][1,4]oxazin-2-yl)propanoate]
> 6.30	5.30 to 6.30	COC(=O)CC[C@H]1CN(S(=O)(=O)c2cc(Cl)cnc2OCCO)c2cc(/C=C/c3c(F)cccc3Cl)ccc2O1 [Example 89AK, methyl (S,E)-3-(4-((5-chloro-2-(2-hydroxyethoxy)pyridin-3-yl)sulfonyl)-6-(2-chloro-6-fluorostyryl)-3,4-dihydro-2H-benzo[b][1,4]oxazin-2-yl)propanoate]
> 6.30	5.30 to 6.30	O=C(O)CC[C@H]1CN(S(=O)(=O)c2cc(Cl)cnc2OCCO)c2cc(/C=C/c3c(F)cccc3Cl)ccc2O1 [Example 89AL, (S,E)-3-(4-((5-chloro-2-(2-hydroxyethoxy)pyridin-3-yl)sulfonyl)-6-(2-chloro-6-fluorostyryl)-3,4-dihydro-2H-benzo[b][1,4]oxazin-2-yl)propanoic acid]
> 6.30	< 5.00	CCOc1nn(CC)cc1S(=O)(=O)N1C[C@H](CCC(=O)O)Oc2ccc(/C=C/c3ccccc3F)cc21 [Example 89AM, (S,E)-3-(4-((3-ethoxy-1-ethyl-1H-pyrazol-4-yl)sulfonyl)-6-(2-fluorostyryl)-3,4-dihydro-2H-benzo[b][1,4]oxazin-2-yl)propanoic acid]
5.30 to 6.30	< 5.00	CCOc1nn(CC)cc1S(=O)(=O)N1C[C@H](CCC(=O)OC)Oc2ccc(/C=C/c3ccccc3F)cc21 [Example 89AN, (S,E)-methyl 3-(4-((3-ethoxy-1-ethyl-1H-pyrazol-4-yl)sulfonyl)-6-(2-fluorostyryl)-3,4-dihydro-2H-benzo[b][1,4]oxazin-2-yl)propanoate]
> 6.30	5.30 to 6.30	O=C(O)CC[C@H]1CN(S(=O)(=O)c2cccc(OC(F)F)c2)c2cc(/C=C/c3ccccc3C(F)(F)F)ccc2O1 [Example 89AO, (S,E)-3-(4-((3-(difluoromethoxy)phenyl)sulfonyl)-6-(2-(trifluoromethyl)styryl)-3,4-dihydro-2H-benzo[b][1,4]oxazin-2-yl)propanoic acid]
> 6.30	5.30 to 6.30	COC(=O)CC[C@H]1CN(S(=O)(=O)c2cccc(OC(F)F)c2)c2cc(/C=C/c3ccccc3C(F)(F)F)ccc2O1 [Example 89AP, (S,E)-methyl 3-(4-((3-(difluoromethoxy)phenyl)sulfonyl)-6-(2-(trifluoromethyl)styryl)-3,4-dihydro-2H-benzo[b][1,4]-oxazin-2-yl)propanoate]
> 6.30	5.30 to 6.30	N#Cc1ccccc1/C=C/c1ccc2c(c1)N(S(=O)(=O)c1cccc(OC(F)F)c1)C[C@H](CCC(=O)O)O2 [Example 89AQ, (S,E)-3-(6-(2-cyanostyryl)-4-((3-(difluoromethoxy)phenyl)sulfonyl)-3,4-dihydro-2H-benzo[b][1,4]oxazin-2-yl)propanoic acid]
> 6.30	5.30 to 6.30	COC(=O)CC[C@H]1CN(S(=O)(=O)c2cccc(OC(F)F)c2)c2cc(/C=C/c3ccccc3C#N)ccc2O1 [Example 89AR, (S,E)-methyl 3-(6-(2-cyanostyryl)-4-((3-(difluoromethoxy)phenyl)sulfonyl)-3,4-dihydro-2H-benzo[b][1,4]-oxazin-2-yl)propanoate]
> 6.30	< 5.00	CCOc1nn(CC)cc1S(=O)(=O)N1C[C@H](CCC(=O)O)Oc2ccc(/C=C/c3ccccc3C)cc21 [Example 89AS, (S,E)-3-(4-((3-ethoxy-1-ethyl-1H-pyrazol-4-yl)sulfonyl)-6-(2-methylstyryl)-3,4-dihydro-2H-benzo[b][1,4]oxazin-2-yl)propanoic acid]
> 6.30	5.30 to 6.30	CCOc1nn(CC)cc1S(=O)(=O)N1C[C@H](CCC(=O)OC)Oc2ccc(/C=C/c3ccccc3C)cc21 [Example 89AT, (S,E)-methyl 3-(4-((3-ethoxy-1-ethyl-1H-pyrazol-4-yl)sulfonyl)-6-(2-methylstyryl)-3,4-dihydro-2H-benzo[b][1,4]oxazin-2-yl)propanoate]
> 6.30	> 6.30	CCOc1nn(CC)cc1S(=O)(=O)N1C[C@H](CCC(=O)O)Oc2ccc(/C=C/c3ccccc3SC)cc21 [Example 89AU, (S,E)-3-(4-((3-ethoxy-1-ethyl-1H-pyrazol-4-yl)sulfonyl)-6-(2-(methylthio)styryl)-3,4-dihydro-2H-benzo[b][1,4]oxazin-2-yl)propanoic acid]
